Data on one compound can be found in US12097200B2, “Combination of BI853520 with chemotherapeutic drugs” (INXMED (NANJING) CO., LTD., priority 2020, dated 2024).

Each structure is given as a SMILES string. Values joined by “and” are separate entries in the source; they are usually repeats but may differ in a detail not shown here. Equal values may be shown once.

One assay relates to CTG-0257. As to the kind of experiment: Antitumor activity in ovarian cancer PDX model CTG-0257. It counts as in vivo, mouse. The settings on record: 30 days until end of test, doses as Table 3.
Another assay deals with CTG-1809. As to the kind of experiment: Antitumor activity in ovarian cancer PDX model CTG-1809. It counts as in vivo, mouse. Conditions: CTG-1809 (carboplatin and paclitaxel-resistant); 36 days until end of test; doses as Table 3.
The next assay relates to CTG-1624. Put plainly: Antitumor activity in ovarian cancer PDX model CTG-1624. It counts as in vivo, mouse. Conditions: 38 days until end of test, doses as Table 3.
Another assay has as its system SKOV-3 cells. Put plainly: Antitumor activity in mouse model of human ovarian cancer (SKOV-3 xenograft). It counts as in vivo. Conditions: combination of both. The source says: (§1) For tumor volume, absolute values were used.
(§2) Appropriate statistical methods were used for evaluation.
SKOV-3 cells harboring CDKN2, MLH1, PIK3CA and TP53 gene mutations were obtained from ATCC (HTB-77).
PLD (Doxil) was purchased from Johnson & Johnson and dissolved in sterile 5% glucose solution.
Treatment was initiated when the median tumor volume was between 70 and 110 mm^3.
In general terms: A xenograft is tissue or cells of one species grown in another, often human tumour cells in immunodeficient mice.

A further assay has as its system CTG-1395. As to the kind of experiment: Antitumor activity in ovarian cancer PDX model CTG-1395. It counts as in vivo, mouse. The settings on record: 33 days until end of test, doses as Table 3.
The next assay concerns CTG-0958. As to the kind of experiment: Antitumor activity in ovarian cancer PDX model CTG-0958. It counts as in vivo, mouse. Conditions: 52 days until end of test, doses as Table 3.
The next assay concerns CTG-0252. Put plainly: Antitumor activity in ovarian cancer PDX model CTG-0252. It counts as in vivo, mouse. Conditions: 7 days until end of test, BI 853520 50 mg/kg PO BID, PLD 3 mg/kg IV q7d, carboplatin 25 mg/kg IP + paclitaxel 20 mg/kg IV q7d.
A further assay relates to A2780 cells. Put plainly: Antitumor activity in mouse model of human ovarian cancer (A2780 xenograft). It counts as in vivo.
From the text: as §1, §2
A2780 cells harboring PTEN gene mutations were obtained from ECACC (93112519).

Protocol for CTG-0252: (§3) Body weights (at start of dosing) were approximately 20 grams. […] Immunocompromised female mice were housed in HEPA ventilated cages (Innocage® IVC, Innovive USA) at 68-74° F. (20-23° C.) and 30-70% humidity under a 12-hour light/12-hour dark cycle. […] Animals with >10% body weight loss compared to day 0 received DietAel 76A (ClearH2O®, Portland, ME) for free. There were 3 mice in each group.
(§4) Mice were implanted with tumor cells from the ChampionsTumorGraft® ovarian model, which was established from patients previously treated with platinum-based therapy. After tumors reached 1000-1500 mm^3, they were collected, and tumor fragments SCs were implanted in the left flank of female pre-study mice. Each study animal was implanted with a specific passage batch. Tumor volume was measured twice a week with calipers to monitor tumor growth, and tumor volume (TV) was calculated using the formula (0.52×[length×width^2]). […] After initiation of dosing, animals were weighed daily using a digital scale and TV was measured twice weekly. […]
(§5) Inhibitory effect on tumor growth was determined by calculating TGI (100%×[1−(final MTV−initial MTV of the treatment group)/(final MTV−initial MTV of the control group)]). […]
(§6) CR: no TV could be detected (<4×4 mm^2), in 2 consecutive measurements […]
Protocol for CTG-0257: as §3, §4, §5, §6
Protocol for CTG-0958: as §3, §4, §5, §6
Protocol for CTG-1395: as §3, §4, §5, §6
Protocol for CTG-1624: as §3, §4, §5, §6
Protocol for CTG-1809: as §3, §4, §5, §6

In general, TGI refers to how far tumour growth fell short of that in controls. Turning to `COc1cc(C(=O)NC2CCN(C)CC2)c(F)cc1Nc1ncc(C(F)(F)F)c(Oc2cccc3c2C(=O)N(C)C3)n1` [BI 853520, 2-fluoro-5-methoxy-4-[(4-(2-methyl-3-oxo-2,3-dihydro-1H-isoindole-4-oxy)-5-trifluoromethyl-pyrimidin-2-yl)amino]-N-(1-methyl-piperidin-4-yl)benzamide], the “TGI (%)” value with CTG-0257 was 67%; in the assay with CTG-1809, −58%; with CTG-1624, 22%; with CTG-1395 it was 41%; in the assay on CTG-0958, 99%; with CTG-0252, 54%. In addition, the TGI in the assay on SKOV-3 cells (day 1 to day 22, median tumor volumes, BI 853520 50 mg/kg qd, PLD 5 mg/kg q7d) is reported as 57%; with A2780 cells (day 1 to day 15, BI 853520 12.5 mg/kg qd) it was 19%; in the assay on A2780 cells (day 1 to day 15, BI 853520 25 mg/kg qd) it was 83%; in the assay with A2780 cells (day 1 to day 15, BI 853520 50 mg/kg qd, PLD 5 mg/kg q7d, combination of both), 85%. Further, the Median tumor volume came out at 306 mm^3 with SKOV-3 cells (day 22, BI 853520 50 mg/kg qd by gavage, PLD 5 mg/kg q7d i.v.); 968 mm^3 with A2780 cells (day 15, BI 853520 12.5 mg/kg qd by gavage); 284 mm^3 in the assay on A2780 cells (day 15, BI 853520 25 mg/kg qd by gavage); 262 mm^3 in the assay with A2780 cells (day 15, BI 853520 50 mg/kg qd by gavage, PLD 5 mg/kg q7d i.v., combination of both). The “Tumor regression (animals with regression/animals in group)” value with SKOV-3 cells (day 22, BI 853520 50 mg/kg qd, PLD 5 mg/kg q7d) is “no tumor regression and 0/7”; in the assay on A2780 cells (day 15, BI 853520 12.5 mg/kg qd, 12.5 mg/kg), “no tumor regression and 0/10”; in the assay with A2780 cells (day 15, BI 853520 25 mg/kg qd, 25 mg/kg), “no tumor regression and 0/10”; in the assay on A2780 cells (day 15, BI 853520 50 mg/kg qd, PLD 5 mg/kg q7d, combination of both), “no tumor regression and 0/10”. Moreover, the “Antitumor effect (in words)” value in the assay on A2780 cells (BI 853520 25 and 50 mg/kg qd, PLD 5 mg/kg q7d, combination 50 + 5 mg/kg) was “efficacy of BI 853520 was observed at medium and high dose levels”.
